The results in this text go back to PubChem BioAssay AID190 (DTP/NCI, 2004).

This assay deals with AKR/Lw mice, AKR lymphoma ip, median survival T/C. Briefly: NCI In Vivo Anticancer Drug Screen. Data for tumor model Lymphoma AKR (Transplanted) (intraperitoneal) in AKR/Lw mice. The conditions noted are these: endpoint: median survival time, higher = longer survival. How it is done: The antitumor activity of compounds was measured in mice bearing transplantable tumors. Survival or tumor size were measured and the results are expressed as the measurement made in the treated group (T) divided by the measurement made in the vehicle treated control group (C). The tumor model used in this assay is Lymphoma AKR (Transplanted) (intraperitoneal) in AKR/Lw mice

[1] abbreviates: dose: 6.2 mg/kg/injection, schedule: Q01DX009 (ip), vehicle: saline.
[2] abbreviates: dose: 25.0 mg/kg/injection, schedule: Q04DX003 (ip), vehicle: saline.
The mark [3] stands for this setting: dose: 50.0 mg/kg/injection, schedule: Q04DX003 (ip), vehicle: Klucel (hydroxypropylcellulose) (HPC).
Setting [4] is: dose: 100.0 mg/kg/injection, schedule: Q01DX001 (ip), vehicle: Klucel (hydroxypropylcellulose) (HPC).
The mark [5] stands for this setting: dose: 100.0 mg/kg/injection, schedule: Q04DX003 (ip), vehicle: Klucel (hydroxypropylcellulose) (HPC).
Where [6] appears, read: dose: 200.0 mg/kg/injection, schedule: Q01DX001 (ip), vehicle: Klucel (hydroxypropylcellulose) (HPC).
The mark [7] stands for this setting: dose: 100.0 mg/kg/injection, schedule: Q01DX001 (ip), vehicle: saline.
[8] abbreviates: dose: 100.0 mg/kg/injection, schedule: Q04DX003 (ip), vehicle: saline.
Where [9] appears, read: dose: 200.0 mg/kg/injection, schedule: Q01DX001 (ip), vehicle: saline.
The mark [10] stands for this setting: dose: 400.0 mg/kg/injection, schedule: Q01DX001 (ip), vehicle: saline.
Where [11] appears, read: dose: 25.0 mg/kg/injection, schedule: Q01DX009 (ip), vehicle: Klucel (hydroxypropylcellulose) (HPC).
Where [12] appears, read: dose: 50.0 mg/kg/injection, schedule: Q01DX009 (ip), vehicle: Klucel (hydroxypropylcellulose) (HPC).
Setting [13] is: dose: 400.0 mg/kg/injection, schedule: Q01DX001 (ip), vehicle: Klucel (hydroxypropylcellulose) (HPC).
Setting [14] is: dose: 50.0 mg/kg/injection, schedule: Q04DX003 (ip), vehicle: saline.
[15] abbreviates: dose: 100.0 mg/kg/injection, schedule: Q04DX003 (ip), vehicle: other.
Where [16] appears, read: dose: 200.0 mg/kg/injection, schedule: Q04DX003 (ip), vehicle: other.

Several values for one entry are separate records, joined by “and”; a condition that tells them apart may be missing. Equal entries are not always repeated. Inconclusive results and toxic doses are left out.

With `CS(=O)(=O)OCCCNCCCOS(C)(=O)=O`, the T/C is, setting by setting: (dose: 1.6 mg/kg/injection, schedule: Q01DX009 (ip), vehicle: saline) 94 % of control; (dose: 1.9 mg/kg/injection, schedule: Q01DX009 (ip), vehicle: saline) 96 % of control; (dose: 2.0 mg/kg/injection, schedule: Q01DX009 (ip), vehicle: saline) 107 % of control; (dose: 3.1 mg/kg/injection, schedule: Q01DX009 (ip), vehicle: saline) 88 % of control and 100 % of control and 115 % of control; (dose: 3.8 mg/kg/injection, schedule: Q01DX009 (ip), vehicle: saline) 106 % of control; (dose: 4.0 mg/kg/injection, schedule: Q01DX009 (ip), vehicle: saline) 103 % of control. Further, the T/C is, setting by setting: under setting [1], 102 % of control; (dose: 6.3 mg/kg/injection, schedule: Q01DX009 (ip), vehicle: saline) 97 % of control; (dose: 8.0 mg/kg/injection, schedule: Q01DX009 (ip), vehicle: saline) 100 % of control; (dose: 12.5 mg/kg/injection, schedule: Q01DX001 (ip), vehicle: saline) 124 % of control; (dose: 12.5 mg/kg/injection, schedule: Q04DX003 (ip), vehicle: saline) 102 % of control and 106 % of control; (dose: 25.0 mg/kg/injection, schedule: Q01DX001 (ip), vehicle: saline) 110 % of control. The T/C was 106 % of control and 112 % of control under setting [2]; 113 % of control (dose: 27.0 mg/kg/injection, schedule: Q04DX003 (ip), vehicle: water); 112 % of control (dose: 45.0 mg/kg/injection, schedule: Q01DX001 (ip), vehicle: saline); 100 % of control and 123 % of control (dose: 60.0 mg/kg/injection, schedule: Q01DX009 (ip), vehicle: saline); 108 % of control (dose: 75.0 mg/kg/injection, schedule: Q01DX001 (ip), vehicle: saline); 192 % of control (dose: 108.0 mg/kg/injection, schedule: Q04DX003 (ip), vehicle: water).
As for `Nc1ccc(OCc2ccc(S(=O)(=O)F)c(Cl)c2)c(Cl)c1`, the T/C under setting [3] was 88 % of control; the T/C under setting [4] was 87 % of control; the T/C under setting [5] is 86 % of control; the T/C (dose: 150.0 mg/kg/injection, schedule: Q01DX009 (ip), vehicle: Klucel (hydroxypropylcellulose) (HPC)) is 112 % of control; the T/C under setting [6] is 90 % of control; the T/C (dose: 200.0 mg/kg/injection, schedule: Q04DX003 (ip), vehicle: Klucel (hydroxypropylcellulose) (HPC)) was 111 % of control.
For `O=C(NC(CSSCC(NC(=O)OCc1ccccc1)C(=O)O)C(=O)O)OCc1ccccc1` (centres undefined), the T/C runs as follows: under setting [7], 107 % of control; under setting [8], 100 % of control; under setting [9], 107 % of control; under setting [10], 102 % of control; (dose: 400.0 mg/kg/injection, schedule: Q04DX003 (ip), vehicle: saline) 89 % of control.
In the case of `CN(C)c1nc(N(C)C)nc(N(C)C)n1`, the T/C is, setting by setting: (dose: 80.0 mg/kg/injection, schedule: Q04DX003 (ip), vehicle: Klucel (hydroxypropylcellulose) (HPC)) 111 % of control; (dose: 160.0 mg/kg/injection, schedule: Q04DX003 (ip), vehicle: Klucel (hydroxypropylcellulose) (HPC)) 108 % of control.
Regarding `COc1ccc(C2c3cc4c(c(OC)c3CC3OCC(=O)C32)OCO4)cc1OC` (centres undefined), the T/C is 110 % of control under setting [11] and 103 % of control under setting [12].
On to `CCOC(=O)CCCSCCCC(=O)OCC`, for which the T/C was 89 % of control under setting [9] and 95 % of control under setting [10].
Take `O=C(O)c1ccc(SSc2ccc(C(=O)O)cn2)nc1`: the T/C is 100 % of control (dose: 12.5 mg/kg/injection, schedule: Q01DX009 (ip), vehicle: Klucel (hydroxypropylcellulose) (HPC)); 92 % of control under setting [11]; 102 % of control under setting [12]; 95 % of control and 102 % of control under setting [4]; 90 % of control and 92 % of control under setting [6]; 95 % of control and 97 % of control under setting [13].
Regarding `Cc1ccc(OS(=O)(=O)c2ccc([N+](=O)[O-])cc2)cc1`, the T/C runs as follows: (dose: 90.0 mg/kg/injection, schedule: Q01DX001 (ip), vehicle: Klucel (hydroxypropylcellulose) (HPC)) 102 % of control; (dose: 135.0 mg/kg/injection, schedule: Q01DX001 (ip), vehicle: Klucel (hydroxypropylcellulose) (HPC)) 102 % of control; under setting [6], 100 % of control; (dose: 300.0 mg/kg/injection, schedule: Q01DX001 (ip), vehicle: Klucel (hydroxypropylcellulose) (HPC)) 93 % of control.
On to `OCC1OC(n2cnc3c(Cl)ncnc32)C(O)C1O` (centres undefined), for which the T/C was 100 % of control under setting [1]; 94 % of control and 96 % of control and 105 % of control (dose: 12.5 mg/kg/injection, schedule: Q01DX009 (ip), vehicle: saline); 93 % of control under setting [2]; 100 % of control (dose: 50.0 mg/kg/injection, schedule: Q01DX001 (ip), vehicle: saline); 100 % of control and 113 % of control and 116 % of control under setting [14]; 94 % of control and 102 % of control and 110 % of control under setting [7]. Moreover, the T/C under setting [15] was 88 % of control; the T/C (dose: 150.0 mg/kg/injection, schedule: Q04DX003 (ip), vehicle: saline) is 100 % of control; the T/C (dose: 200.0 mg/kg/injection, schedule: Q01DX009 (ip), vehicle: saline) was 87 % of control and 101 % of control and 102 % of control; the T/C under setting [16] was 113 % of control; the T/C (dose: 250.0 mg/kg/injection, schedule: Q04DX003 (ip), vehicle: saline) was 118 % of control; the T/C (dose: 400.0 mg/kg/injection, schedule: Q01DX009 (ip), vehicle: saline) was 90 % of control and 96 % of control. The T/C (dose: 400.0 mg/kg/injection, schedule: Q04DX003 (ip), vehicle: other) was 119 % of control and 123 % of control; the T/C (dose: 500.0 mg/kg/injection, schedule: Q04DX003 (ip), vehicle: saline) is 88 % of control; the T/C (dose: 600.0 mg/kg/injection, schedule: Q01DX001 (ip), vehicle: saline) was 90 % of control and 92 % of control; the T/C (dose: 600.0 mg/kg/injection, schedule: Q04DX003 (ip), vehicle: saline) was 90 % of control (2×) and 113 % of control.
For `C[C@]12CCC(=O)C=C1CC[C@@H]1[C@@H]2[C@@H](O)C[C@@]2(C)[C@H]1CC[C@]2(O)C(=O)CO`, the T/C is 117 % of control (dose: 5.0 mg/kg/injection, schedule: Q01DX005 (sc), vehicle: steriod suspending solution); 106 % of control (dose: 10.0 mg/kg/injection, schedule: Q01DX005 (sc), vehicle: steriod suspending solution); 106 % of control (dose: 20.0 mg/kg/injection, schedule: Q01DX005 (sc), vehicle: steriod suspending solution); 94 % of control (dose: 25.0 mg/kg/injection, schedule: Q01DX005 (sc), vehicle: steriod suspending solution); 107 % of control (dose: 50.0 mg/kg/injection, schedule: Q01DX005 (sc), vehicle: steriod suspending solution).
In the case of `Cc1cnc2c(=N)n(C(=O)C(F)(F)F)n(C)c2n1`, the T/C under setting [7] was 89 % of control, the T/C under setting [9] was 100 % of control and the T/C under setting [10] is 92 % of control.
`COc1ccc(CCN2C(=O)CSC2=S)cc1OC`: the T/C is, setting by setting: under setting [4], 100 % of control; under setting [13], 100 % of control.
Consider `CC12CC3CC(C1)CC(C(=O)O)(C3)C2`, for which the T/C is 97 % of control under setting [2]; 102 % of control under setting [14]; 100 % of control under setting [7]; 100 % of control under setting [8]; 101 % of control under setting [9]; 108 % of control under setting [10].
With `N#CCCNc1ccc(NC(=O)C(F)(F)F)cc1`, the T/C was 96 % of control under setting [11]; 89 % of control under setting [12]; 90 % of control (dose: 50.0 mg/kg/injection, schedule: Q04DX003 (ip), vehicle: other); 103 % of control under setting [7]; 95 % of control under setting [15]; 100 % of control under setting [9]. Moreover, the T/C under setting [16] was 95 % of control.
With `COC(=O)C1(C)CCC(c2ccc(OC)cc2)C(CC(=O)O)C1=O` (centres undefined), the T/C is 100 % of control under setting [3]; 100 % of control under setting [4]; 100 % of control under setting [5]; 113 % of control under setting [6]; 105 % of control under setting [13].
